In this assay the test system is 521955-158-R2-J5-PDC complex spheroid viability. The experiment in a line: Anticancer human tumor 521955-158-R2-J5-PDC patient-derived pancreatic carcinoma cell line growth inhibition. Conditions: for viability, T/C: stronger effect = lower value. The gist of the method:
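Drug combinations with the LSD1 inhibitor iadademstat tested on tumor cells co-cultured as spheroids with endothelial cells and mesenchymal stem cells. Concentrations descended in half-log increments from clinical Cmax or 10 microM.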

Setting [1] is: curve of first compound, second compound 0.1 µM.
[2] abbreviates: curve of first compound, second compound 0.316 µM.
[3] abbreviates: curve of first compound, second compound 1 µM.
Setting [4] is: curve of first compound, second compound 3.16 µM.
[5] abbreviates: curve of first compound, second compound 10 µM.
Where [6] appears, read: second compound 0.1 µM, first compound 0.00949 µM.
[7] abbreviates: second compound 0.1 µM, first compound 0.03 µM.
Setting [8] is: second compound 0.1 µM, first compound 0.0949 µM.
Setting [9] is: second compound 0.1 µM, first compound 0.3 µM.
The mark [10] stands for this setting: second compound 0.316 µM, first compound 0.00949 µM.
The mark [11] stands for this setting: second compound 0.316 µM, first compound 0.03 µM.
Where [12] appears, read: second compound 0.316 µM, first compound 0.0949 µM.
Setting [13] is: second compound 0.316 µM, first compound 0.3 µM.
[14] abbreviates: second compound 1 µM, first compound 0.00949 µM.
The mark [15] stands for this setting: second compound 1 µM, first compound 0.03 µM.
The mark [16] stands for this setting: second compound 1 µM, first compound 0.0949 µM.
[17] abbreviates: second compound 1 µM, first compound 0.3 µM.
The mark [18] stands for this setting: second compound 3.16 µM, first compound 0.00949 µM.
[19] abbreviates: second compound 3.16 µM, first compound 0.03 µM.
The mark [20] stands for this setting: second compound 3.16 µM, first compound 0.0949 µM.
[21] abbreviates: second compound 3.16 µM, first compound 0.3 µM.
The mark [22] stands for this setting: second compound 10 µM, first compound 0.00949 µM.
Setting [23] is: second compound 10 µM, first compound 0.03 µM.
Where [24] appears, read: second compound 10 µM, first compound 0.0949 µM.
Setting [25] is: second compound 10 µM, first compound 0.3 µM.

In general, viability, T/C refers to the result in the treated group divided by that in the control group, in per cent. In general, IC50 refers to the midpoint of a concentration-inhibition curve.

Molecules are shown by their SMILES. Where “and” joins values, the source holds several entries; their conditions need not be identical. Equal entries are not always repeated.
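Further: spheroids exposed to agents for seven days.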
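Wherever viability, T/C is given: percent of DMSO vehicle control luminescence viability.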

Take `CCN(c1cc(-c2ccc(CN3CCOCC3)cc2)cc(C(=O)NCc2c(C)cc(C)[nH]c2=O)c1C)C1CCOCC1`: the viability, T/C was 102% and 106% (compound 0.00949 µM); 100% and 106% (compound 0.03 µM); 98.5% and 102% (compound 0.0949 µM); 83.5% and 102% (compound 0.3 µM); 73.1% and 87.9% (compound 0.949 µM); 46.6% and 75% (compound 3 µM). Moreover, for the setting “curve of compound”, the IC50 is 2600 nM and > 3000 nM.

For `O=C(C=Cc1cccc(S(=O)(=O)Nc2ccccc2)c1)NO`, the viability, T/C by setting is: (compound 0.00949 µM) 114%; (compound 0.03 µM) 108% and 119%; (compound 0.0949 µM) 91.1% and 104%; (compound 0.3 µM) 48.3% and 70.4%; (compound 0.949 µM) 10.4% and 38.4%. Further, the IC50 (curve of compound) was > 3000 nM and 619 nM.

As for `Nc1ccccc1NC(=O)c1ccc(CNC(=O)OCc2cccnc2)cc1` + NC1CC1c1ccc(-c2cccc(O)c2)cc1, the IC50 reads like this: under setting [1], 429 nM; under setting [2], 393 nM; under setting [3], 446 nM; under setting [4], 452 nM; under setting [5], 403 nM. Also, the viability, T/C was 89.2% under setting [6]; 101% under setting [7]; 83.6% under setting [8]; 62.8% under setting [9]; 22.8% (second compound 0.1 µM, first compound 0.949 µM); 0.44% (second compound 0.1 µM, first compound 3 µM). For the same molecule, the viability, T/C is, setting by setting: under setting [10], 83.7%; under setting [11], 88.8%; under setting [12], 77.9%; under setting [13], 59.9%; (second compound 0.316 µM, first compound 0.949 µM) 19.9%; (second compound 0.316 µM, first compound 3 µM) 0.28%. Also, the viability, T/C under setting [14] is 90.4%; the viability, T/C under setting [15] was 88.5%; the viability, T/C under setting [16] was 77.1%; the viability, T/C under setting [17] is 67.8%; the viability, T/C (second compound 1 µM, first compound 0.949 µM) is 19.9%; the viability, T/C (second compound 1 µM, first compound 3 µM) was 1.47%. Besides, the viability, T/C reads like this: under setting [18], 84.2%; under setting [19], 89.1%; under setting [20], 82.9%; under setting [21], 70%; (second compound 3.16 µM, first compound 0.949 µM) 14.2%; (second compound 3.16 µM, first compound 3 µM) 0.23%. Moreover, the viability, T/C is 90.3% under setting [22]; 85.1% under setting [23]; 83.7% under setting [24]; 65.3% under setting [25]; 5.98% (second compound 10 µM, first compound 0.949 µM); 0.28% (second compound 10 µM, first compound 3 µM).

On to `CC1COCCN1c1cc(C2(S(C)(=N)=O)CC2)nc(-c2ccnc3[nH]ccc23)n1` (stereo not given) + NC1CC1c1ccc(-c2cccc(O)c2)cc1, for which the IC50 was determined as 564 nM under setting [1]; 543 nM under setting [2]; 666 nM under setting [3]; 587 nM under setting [4]; 567 nM under setting [5]. In addition, the viability, T/C by setting is: (second compound 0.1 µM, first compound 0.0316 µM) 82.3%; (second compound 0.1 µM, first compound 0.1 µM) 93.9%; (second compound 0.1 µM, first compound 0.316 µM) 77.7%; (second compound 0.1 µM, first compound 1 µM) 22.6%; (second compound 0.1 µM, first compound 3.16 µM) 15.7%; (second compound 0.1 µM, first compound 10 µM) 20.8%. Further, the viability, T/C (second compound 0.316 µM, first compound 0.0316 µM) is 84%; the viability, T/C (second compound 0.316 µM, first compound 0.1 µM) was 86.3%; the viability, T/C (second compound 0.316 µM, first compound 0.316 µM) is 74.5%; the viability, T/C (second compound 0.316 µM, first compound 1 µM) is 22.4%; the viability, T/C (second compound 0.316 µM, first compound 3.16 µM) was 15.2%; the viability, T/C (second compound 0.316 µM, first compound 10 µM) was 20.4%. For the same molecule, the viability, T/C is, setting by setting: (second compound 1 µM, first compound 0.0316 µM) 83%; (second compound 1 µM, first compound 0.1 µM) 90.8%; (second compound 1 µM, first compound 0.316 µM) 87.6%; (second compound 1 µM, first compound 1 µM) 29.7%; (second compound 1 µM, first compound 3.16 µM) 15.9%; (second compound 1 µM, first compound 10 µM) 16.8%. Besides, the viability, T/C was 81% (second compound 3.16 µM, first compound 0.0316 µM); 80.2% (second compound 3.16 µM, first compound 0.1 µM); 78.5% (second compound 3.16 µM, first compound 0.316 µM); 25.5% (second compound 3.16 µM, first compound 1 µM); 14.9% (second compound 3.16 µM, first compound 3.16 µM); 15.3% (second compound 3.16 µM, first compound 10 µM). The viability, T/C reads like this: (second compound 10 µM, first compound 0.0316 µM) 88.8%; (second compound 10 µM, first compound 0.1 µM) 102%; (second compound 10 µM, first compound 0.316 µM) 69.8%; (second compound 10 µM, first compound 1 µM) 30.7%; (second compound 10 µM, first compound 3.16 µM) 14.9%; (second compound 10 µM, first compound 10 µM) 17.6%.

In the case of `Nc1ccn(C2OC(CO)C(O)C2(F)F)c(=O)n1` (stereo not given) + NC1CC1c1ccc(-c2cccc(O)c2)cc1, the IC50 came out at 66.8 nM under setting [1]; 70.8 nM under setting [2]; 69.9 nM under setting [3]; 57 nM under setting [4]; 36.5 nM under setting [5]. In addition, the viability, T/C (second compound 0.1 µM, first compound 0.000949 µM) was 86.9%; the viability, T/C (second compound 0.1 µM, first compound 0.003 µM) was 86.4%; the viability, T/C under setting [6] was 84%; the viability, T/C under setting [7] was 66.8%; the viability, T/C under setting [8] was 42.8%; the viability, T/C under setting [9] was 23.4%. Besides, the viability, T/C was 83.2% (second compound 0.316 µM, first compound 0.000949 µM); 89.1% (second compound 0.316 µM, first compound 0.003 µM); 79.1% under setting [10]; 66% under setting [11]; 44.9% under setting [12]; 24.9% under setting [13]. For the same molecule, the viability, T/C runs as follows: (second compound 1 µM, first compound 0.000949 µM) 90.8%; (second compound 1 µM, first compound 0.003 µM) 84%; under setting [14], 87.3%; under setting [15], 63.3%; under setting [16], 45.8%; under setting [17], 26.5%. Besides, the viability, T/C is, setting by setting: (second compound 3.16 µM, first compound 0.000949 µM) 90.1%; (second compound 3.16 µM, first compound 0.003 µM) 94.8%; under setting [18], 92%; under setting [19], 67.7%; under setting [20], 36.3%; under setting [21], 27.5%. Besides, the viability, T/C is 97.4% (second compound 10 µM, first compound 0.000949 µM); 87.9% (second compound 10 µM, first compound 0.003 µM); 80.3% under setting [22]; 52.5% under setting [23]; 36% under setting [24]; 33.9% under setting [25].

For `Nc1ncn(C2CC(O)C(CO)S2)c(=O)n1` (stereo not given), the viability, T/C (compound 0.000949 µM) was 103% and 99.3%; the viability, T/C (compound 0.003 µM) is 105% and 110%; the viability, T/C (compound 0.00949 µM) was 104% and 105%; the viability, T/C (compound 0.03 µM) is 93.2% and 90.9%; the viability, T/C (compound 0.0949 µM) is 77.6% and 73.8%; the viability, T/C (compound 0.3 µM) is 41.2% and 53.5%. The half-maximal inhibitory concentration (IC50) (curve of compound) was 226 nM and > 300 nM.

These data come from PubChem BioAssay AID1918937 (Molecular Pharmacology Branch, DTP, NCI, 2023).
